This note sets out measurements from patent US12270064B2, “Peptide for complexing zinc ion, complex thereof and use therefor” (Guangzhou University, priority 2020, dated 2025).

No end group written: not given here.

The assay in a line: Complexing rate / complexing ability of zinc ion of soybean peptide fractions. It counts as binding. To be noted: HPLC separation of F2, FIG. 2.

On to “KYKRQRW [F21, single peptide component purified by HPLC from F2; also made by solid phase peptide synthesis]”, for which the “complexing ability with zinc ion, ranking among HPLC fractions” value is “strongest complexing ability with zinc ion”.
